Source: BindingDB's records for patent US10766884 (Pfizer Inc., 2020)

Biological target: Cyclin-dependent kinase 6/G1/S-specific cyclin-D3 (Homo sapiens, UniProt Q00534)
Assay: Biological Assay
Method: CDK6/Cyclin D3: The purpose of the CDK6/Cyclin D3 assay is to evaluate the inhibition (% inhibition, Kiapp and Ki values) in the presence of small molecule inhibitors by using a fluorescence based microfluidic mobility shift assay. […] The mobility shift assay electrophoretically separates the fluorescently labeled peptides (substrate and phosphorylated product) following the kinase reaction. Both substrate and product are measured and the ratio of these values is used to generate % conversion of substrate to product by the LabChip EZ Reader.

Cyclin-dependent kinase 6/G1/S-specific cyclin-D3, sequence (Q00534 whole entry): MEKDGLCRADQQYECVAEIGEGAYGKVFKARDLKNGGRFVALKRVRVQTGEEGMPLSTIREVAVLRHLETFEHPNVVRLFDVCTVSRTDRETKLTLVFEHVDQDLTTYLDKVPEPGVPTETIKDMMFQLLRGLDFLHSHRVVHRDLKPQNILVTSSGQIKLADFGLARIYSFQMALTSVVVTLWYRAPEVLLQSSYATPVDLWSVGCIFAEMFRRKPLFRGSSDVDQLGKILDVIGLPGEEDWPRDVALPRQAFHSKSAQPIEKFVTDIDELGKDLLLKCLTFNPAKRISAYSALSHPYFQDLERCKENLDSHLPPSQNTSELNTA
Cyclin-dependent kinase 6/G1/S-specific cyclin-D3, sequence (P30281 whole entry, further chain): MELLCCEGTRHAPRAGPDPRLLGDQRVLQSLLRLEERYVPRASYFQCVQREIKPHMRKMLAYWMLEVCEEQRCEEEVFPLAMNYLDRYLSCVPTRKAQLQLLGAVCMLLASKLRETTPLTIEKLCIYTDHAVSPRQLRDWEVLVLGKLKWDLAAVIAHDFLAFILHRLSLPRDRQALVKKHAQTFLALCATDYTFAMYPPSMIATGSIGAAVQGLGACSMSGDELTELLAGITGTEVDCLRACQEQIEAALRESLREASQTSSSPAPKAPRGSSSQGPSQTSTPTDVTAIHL

Ki: 1.4 nM
SMILES: Cc1nc2c(F)cc(-c3cc(N[C@@H]4CCN(S(C)(=O)=O)C[C@H]4O)ncc3Cl)cc2n1C(C)C [US10766884, Example E01]
